Results: PubChem BioAssay (NCI)
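All cell lines were grown in 96-well plates and treated with compound for 48 hours. At the GI50, growth is halved. TGI: concentration producing complete growth inhibition.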

What was measured:
Assay in all cases: NCI-60 cell line screen, 48 h
HCT-116 colon = tested on: HCT-116 colon
IGROV1 ovarian = tested on: IGROV1 ovarian
KM12 colon = tested on: KM12 colon
MOLT-4 leukemia = tested on: MOLT-4 leukemia
NCI-H522 lung = tested on: NCI-H522 lung
OVCAR-4 ovarian = tested on: OVCAR-4 ovarian
SF-539 CNS = tested on: SF-539 CNS
SK-MEL-28 melanoma = tested on: SK-MEL-28 melanoma
SW-620 colon = tested on: SW-620 colon
UO-31 renal = tested on: UO-31 renal

Compound	TGI (HCT-116 colon) [µM]	TGI (IGROV1 ovarian) [µM]	TGI (KM12 colon) [µM]	TGI (MOLT-4 leukemia) [µM]	TGI (NCI-H522 lung) [µM]	TGI (OVCAR-4 ovarian) [µM]	TGI (SF-539 CNS) [µM]	TGI (SK-MEL-28 melanoma) [µM]	TGI (SW-620 colon) [µM]	TGI (UO-31 renal) [µM]	GI50 (HCT-116 colon) [µM]	GI50 (IGROV1 ovarian) [µM]	GI50 (KM12 colon) [µM]	GI50 (MOLT-4 leukemia) [µM]	GI50 (NCI-H522 lung) [µM]	GI50 (OVCAR-4 ovarian) [µM]	GI50 (SF-539 CNS) [µM]	GI50 (SK-MEL-28 melanoma) [µM]	GI50 (SW-620 colon) [µM]	GI50 (UO-31 renal) [µM]
CC1OC(OCC2OC(Oc3c(-c4ccc(O)cc4)oc4cc(O)cc(O)c4c3=O)C(OC3OC(C)C(O)C(O)C3O)C(O)C2O)C(O)C(O)C1O (stereo unspecified)	> 100	> 100	> 100	> 100	> 100	> 90.2	> 100	> 100	> 62.4	> 100	–	–	–	–	–	–	–	–	–	–
CN(C)c1ccc([O-])cc1.CN(C)c1ccc([O-])cc1.CN(C)c1ccc([O-])cc1.CN(C)c1ccc([O-])cc1.[Ti+4]	> 100	> 100	> 100	> 100	98.2	> 100	> 100	> 100	> 100	> 100	> 100	> 100	55	38.1	33.2	75.3	> 100	> 100	69.9	> 100
O=C1C=CC=CC2CC=C[C@@H](O)C12 (stereo partly specified)	27.7	> 100	24.5	> 100	26.8	> 100	63.9	–	35.3	31.5	–	–	–	–	–	–	–	–	–	–
O=C(O)COc1ccc(O)c2c1C(=O)CCCC2=O	> 100	> 100	> 100	> 100	> 100	> 100	> 100	> 100	> 100	> 100	–	–	–	–	–	–	–	–	–	–
Cc1ccc(S(=O)(=O)NCCNC2=CC(=O)c3nc4ccccc4c4ccnc2c34)cc1	> 100	51.9	34.6	–	37.3	> 100	38.3	57.9	97.2	> 100	26.9	19.9	16.1	–	15	26.8	19.1	26.7	19.6	24.3
CCOC(=O)C1=C(c2ccccc2)N(C)c2ccccc2S1	73.3	> 100	–	> 100	52.3	> 100	> 100	> 100	> 100	81	–	–	–	–	–	–	–	–	–	–
CSC(CC(=O)O)C(=O)O (stereo unspecified)	> 100	> 100	> 100	> 100	> 100	> 100	> 100	> 100	> 100	> 100	–	–	–	–	–	–	–	–	–	–
COc1cc(/C=C\c2ccccc2)cc(OC)c1OC	> 100	> 100	> 73.1	17.2	7.26	> 61	7.47	> 100	> 100	30	–	–	–	–	–	–	–	–	–	–
C=C(CCCCCCCCC)CC(=O)SCCNC(=O)CCNC(=O)C(O)C(C)(C)COP(=O)(O)OP(=O)(O)OCC1OC(n2cnc3c(N)ncnc32)C(O)C1OP(=O)(O)O (stereo unspecified)	> 100	> 100	> 100	> 100	> 100	> 100	> 85.6	21.6	> 100	> 100	–	–	–	–	–	–	–	–	–	–
NCCCOCC(=O)O	> 100	> 100	> 100	> 100	–	> 100	> 100	> 100	> 100	> 100	–	–	–	–	–	–	–	–	–	–
CC1CCP(=O)(c2ccccc2)c2ccccc21 (stereo unspecified)	46.7	> 100	> 100	75.4	> 100	> 100	> 100	> 100	–	> 100	–	–	–	–	–	–	–	–	–	–
CC1CC#CCOC(=O)CCCC1=O (stereo unspecified)	> 100	> 100	> 100	> 100	> 100	> 100	> 100	> 100	> 100	–	–	–	–	–	–	–	–	–	–	–
O=C(Nc1cccs1)c1c(O)[nH]c(=S)[nH]c1=O	–	> 100	> 100	> 100	> 100	> 100	> 100	> 100	> 100	> 100	–	–	–	–	–	–	–	–	–	–
O=Nc1c(-c2c(O)[nH]c3ccc([N+](=O)[O-])cc23)[nH]c2ccc(O)cc12	–	> 100	1.28	4.21	2.67	> 100	0.827	> 100	> 100	–	–	0.312	0.298	0.359	0.38	0.43	0.258	0.435	0.385	–
OC1c2ccccc2C2(O)C1C(c1ccccc1)C(c1ccccc1)C2(O)c1ccccc1 (stereo unspecified)	–	82.9	25.3	22.8	31.7	> 100	26	25.7	52	55.5	–	–	–	–	–	–	–	–	–	–
Oc1cc(O)c(Oc2cccc(O)c2O)c(O)c1	–	> 100	> 100	> 100	> 100	31.6	> 100	> 100	> 100	> 100	–	–	–	–	–	–	–	–	–	–
CCOC(=O)C1(Br)C(c2ccccc2)NC(=O)NC1(C)Br (stereo unspecified)	> 100	> 100	> 100	> 73.7	> 53.2	> 100	> 100	> 100	–	> 100	–	–	–	–	–	30.3	> 100	–	–	–
COC1=CC(=O)C2C(C1=O)[C@@H]1c3ccccc3C[C@H]21 (stereo partly specified)	–	> 100	> 100	> 100	> 100	> 100	> 100	> 100	> 100	> 100	–	–	–	–	–	–	–	–	–	–
